Several values for one entry are separate records, joined by “and”; a condition that tells them apart may be missing. Equal entries are not always repeated.
System: CCI-rats (chronic constriction injury of the sciatic nerve); tactile allodynia in ipsilateral hindpaw, antinociception in contralateral hindpaw
Parameters: species or system Sprague-Dawley rats
Conditions: rat, in vivo

For “pGlu Gly Val Cys1 Cys2 Gly Tyr Lys Leu Cys3 His Hyp Cys4 [SEQ ID NO: 6]”, the ED10 was 0.2 nmol, the ED20 was 0.4 nmol and the “ED50 for antinociception in the contralateral hindpaw” value was 15.2 nmol. The “ED50 for the alleviation of tactile allodynia in the ipsilateral hindpaw” value was 14.8 (±1.1) nmol and 15.7 (±3.9) nmol, the “change of mean PWT by 5 min post-dosing” value was “more than doubled” and the duration of action was 2 to 3 h and > 4 h. For the same substance, the “duration of action relative to a similarly large dose of i.t. morphine (35 nmol)” value was ~10 fold, the “duration of anti-allodynic response relative to the 10 nmol dose” value was > 7 fold and > 13 fold and the “duration of the anti-allodynic response” value was ~30 h and ~54 h. The “effect on PWT in both the ipsilateral and contralateral hindpaws” value was “dose-dependent increase”, the “extent and duration (PWT AUCs) of ipsilateral responses relative to contralateral responses” value was ~2 fold and the “time of peak anti-allodynic and antinociceptive effects” value was 1 to 1.5 h. The “time of peak antiallodynic and antinociceptive effects post-dosing” value was 15 min and the “time of peak effect” value was 1 to 1.5 h.

From US8188048B2 (priority 2006, dated 2012)
